The text below walks through data of US20260166159A1, “KRAS G12D DEGRADATION AGENT, AND PREPARATION METHOD AND USE THEREFOR” (LEADINGTAC PHARMACEUTICAL (SHAOXING) CO., LTD., priority 2022, published 2026).

The structures appear in SMILES notation.

Common to all, as to type: cell-based
The test system of experiment [1] is KRAS G12D mutant human gastric cancer cell AGS. Nature of the experiment: 3D cell proliferation inhibition assay, AGS. The conditions noted are these: 168 h, 7 days, CTG. From the text:
(§1) The inhibitory effects of the compounds on 3D cell proliferation were investigated on KRAS G12D mutant human lung cancer cell A427, KRAS G12D mutant human gastric cancer cell AGS, KRAS G12D mutant human metastatic pancreatic cancer cell AsPc-1, KRAS G12D mutant human pancreatic cancer cell Panc 04.03, KRAS G12D mutant human pancreatic cancer cell HPAC, KRAS G12V mutant human lung squamous cell carcinoma cell SW900, and KRAS WT human gastric cancer cell MKN1. The specific procedures were as follows:
(§2) 10 μL of each compound solution diluted in a gradient was added to corresponding wells of a 96-well low-adsorption microplate (PerkinElmer), so that the final concentrations of the test compounds in the reaction system were in a range of 10000-0.026 nM. The final concentration of DMSO was 0.2%. Then 90 µL of cells were correspondingly seeded into each well to achieve a cell density of 5×10^2 cells/well (the cell density of SW900 was 5×10^1 cells/well, and the cell density of MKN1 was 1×10^3 cells/well). In addition to test wells for the test compounds, both a DMSO control well and a medium control well were set, with the DMSO control well containing DMSO and cells and the medium well containing only a medium. After the sample loading, the 96-well low-adsorption microplate was incubated in an incubator at 37° C. with 5% carbon dioxide for 7 days. After 7 days, the microplate was taken out, and 100 μL of CTG reagent (Promega) was added to each well. The plate was incubated at room temperature for 60 min and read on a microplate reader EnVision by the chemiluminescence program. The inhibition rates of the compounds at each concentration were calculated using the formula for the percentage inhibition of cell proliferation: inhibition rate %=(mean value of DMSO control group−single concentration reading value of compound)/(mean value of DMSO control group−mean value of medium control group)×100. Then non-linear curve fittings for logarithmic concentration-inhibition rate were performed by GraphPad Prism 8, and the IC50 values of the compounds were obtained (Table 5).

The next experiment has as its target T1, KRAS-G12D (Homo sapiens, UniProt P01116, G12D).
T1 construct: endogenous in cells; host or cells: A-427 (ATCC), AGS, AsPc-1, Panc 04.03
Kind of experiment: KRAS-G12D degradation assay (Western Blot), A-427 cells. To be noted: A427 cells, 24 h; for Dmax: A-427. As for the experimental part:
The degradation effects of the compounds on KRAS-G12D were investigated on KRAS G12D mutant human lung cancer cell A-427 (ATCC), KRAS G12D mutant human gastric cancer cell AGS, KRAS G12D mutant human metastatic pancreatic cancer cell AsPc-1, and KRAS G12D mutant human pancreatic adenocarcinoma cell Panc 04.03. The specific procedures were as follows: 0.95 mL of cells were seeded into each well of a 24-well cell culture plate to achieve a cell density of 5×10^5 cells/well; and the cell plate was incubated in an incubator at 37° C. with 5% CO2 overnight. Then 50 μL of the compound solution after dilution was added to each of the wells with the corresponding cells, so that the final concentration of the compound was in a range of 0.03-3000 nM. The final concentration of DMSO was 0.25%. After the compounds were added, the cell plate was incubated in the incubator at 37° C. with 5% CO2 for 24 h. The culture medium in the 24-well cell culture plate was removed, and the plate was washed twice with 1×PBS (KeyGEN). 120 μL of RIPA (strong) lysis buffer (Beyotime) supplemented with 1 mM phenylmethylsulfonyl fluoride, a protease inhibitor mixture (Beyotime), and a protease phosphatase inhibitor mixture (Beyotime) was added to lyse adherent A-427 cells at the bottom of the cell culture plate. After the plate was left to stand on ice for 30 min, the protein lysate in each well was transferred to a 1.5 mL centrifuge tube and centrifuged at 15000 g for 20 min at 4° C. The cell lysate supernatants after centrifugation were cryopreserved in a refrigerator at −80° C. for later use.
After the samples of the cell lysate supernatants that had been prepared were thawed from the refrigerator at −80° C., the total protein concentrations of the cell lysates were determined using a BCA protein quantification kit (Tiangen). The total protein concentrations of the samples were then adjusted to 0.5 μg/μL with PBS and 5×SDS-PAGE protein loading buffer (Beyotime), and the samples were incubated in a water bath at 100° C. for 15 min. The samples were then incubated in an ice bath for 5 min and centrifuged at 14000 g for 1 min at 4° C., and the supernatants were mixed well as loading samples for the Western Blot assay. The samples were loaded into wells of a 10% precast gel (KeyGEN) with a loading volume of 10 μL (total protein: 5 μg), a sufficient Tris-MOPS-SDS running buffer (Adamas) was added, and then electrophoresis was performed at a constant voltage of 120 V for 55 min. After the electrophoresis, the proteins on the gel were transferred to PVDF membranes at a constant current of 250 mA for 55 min. After the membrane transfer, the PVDF membranes were incubated in 1× Quick Block blocking buffer (Beyotime) at room temperature for 30 min. After the blocking, the PVDF membranes were separately incubated at 4° C. overnight with the KRAS antibody (Abcam) diluted in a ratio of 1:1000 and the […] antibody (Abcam) diluted in a ratio of 1:2000 in 5% BSA as the diluent, and then washed with 1×TBST buffer (2.4 g of Tris, 8.8 g of NaCl, 1.5 mL of Tween 20, with pH adjusted to 7.4, with the volume brought to 1 L) 3 times for 10 min/time. The membranes were incubated with a secondary antibody (Abcam) diluted in 5% BSA at room temperature for 2 h, and then washed with 1×TBST buffer 3 times for 10 min/time. Finally, the membranes were incubated with Clarity Western ECL Substrate (BIO-RAD) for 5 min for luminescence and color development, and a ChemiScope 6200 Touch chemiluminescence imaging system (Clinx) was used for color development and protein mapping. Gray value analysis of the protein maps was performed using the chemiluminescence analysis software (Clinx). The gray correction value for each sample was calculated using the formula: gray correction value=(gray value of target protein/gray value of corresponding internal reference)×10^3. Then degradation rates were calculated by comparison with the gray correction value of the control group. […]
A general note: A western blot detects proteins with antibodies after separation by electrophoresis.

In experiment [2] the test system is KRAS G12D mutant human lung cancer cell A427. Nature of the experiment: 3D cell proliferation inhibition assay, A427. The conditions noted are these: A-427, 168 h, A427, 7 days, CTG.
Source text: as §1, §2

T1 sequence (P01116 1-188 isoform P01116-2 G12D): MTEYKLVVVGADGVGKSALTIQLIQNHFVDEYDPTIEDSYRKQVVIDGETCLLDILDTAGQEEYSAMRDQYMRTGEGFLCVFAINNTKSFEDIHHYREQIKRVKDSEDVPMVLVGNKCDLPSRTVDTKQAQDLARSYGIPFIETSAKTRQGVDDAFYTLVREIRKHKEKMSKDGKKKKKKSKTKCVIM

Turning to `CCc1c(F)ccc2cc(O)cc(-c3ccc4c(N5CC6CCC(C5)N6)nc(OCC5(CN6CCN(CC7CCC8(CC7)CCN(C(=O)c7ccc(Cl)c(N9CCC(=O)NC9=O)c7)CC8)CC6)CC5)nc4c3F)c12` [Example 74, 1-(5-(9-((4-((1-(((4-(3,8-diazabicyclo[3.2.1]octan-3-yl)-7-(8-ethyl-7-fluoro-3-hydroxynaphthalen-1-yl)-8-fluoroquinazolin-2-yl)oxy)methyl)cyclopropyl)methyl)piperazin-1-yl)methyl)-3-azaspiro[5.5]undecane-3-carbonyl)-2-chlorophenyl)dihydropyrimidine-2,4(1H,3H)-dione], the IC50 (usually the midpoint of a concentration-inhibition curve) in experiment [1] (numeric values) was found to be 15.7 nM; in experiment [2] (numeric values), 31.6 nM. For the same compound, half-maximal degradation at KRAS-G12D (numeric values) (DC50) was put at 38.1 nM. Besides, the Dmax – broadly, the greatest extent of degradation seen – at KRAS-G12D (numeric values) turned out to be 77%.

As to `C#Cc1c(F)ccc2cc(O)cc(-c3ncc4c(N5CC6CCC(C5)N6)nc(OCC5(CN6CCN(CC7CCC8(CC7)CCN(C(=O)c7ccc(F)c(N9CCC(=O)NC9=O)c7)CC8)CC6)CC5)nc4c3F)c12` [Example 48, 1-(5-(9-((4-((1-(((4-(3,8-diazabicyclo[3.2.1]octan-3-yl)-7-(8-ethynyl-7-fluoro-3-hydroxynaphthalen-1-yl)-8-fluoropyrido[4,3-d]pyrimidin-2-yl)oxy)methyl)cyclopropyl)methyl)piperazin-1-yl)methyl)-3-azaspiro[5.5]undecane-3-carbonyl)-2-fluorophenyl)dihydropyrimidine-2,4(1H,3H)-dione], the IC50 in experiment [1] (class symbols) is ≤ 50 nM. At KRAS-G12D (class symbols), the DC50 (usually the midpoint of the concentration-degradation curve) is ≤ 50 nM and the Dmax was 80 to 100%. Besides, the IC50 in experiment [2] (class symbols) is ≤ 50 nM.

Compound `CCc1cccc2cc(O)cc(-c3ccc4c(N5CC6CCC(C5)N6)nc(OCC5(CN6CCN(CC7CCC8(CC7)CCN(C(=O)c7ccc(Cl)c(N9CCC(=O)NC9=O)c7)CC8)CC6)CC5)nc4c3F)c12` [Example 62, 1-(5-(9-((4-((1-(((4-(3,8-diazabicyclo[3.2.1]octan-3-yl)-7-(8-ethyl-3-hydroxynaphthalen-1-yl)-8-fluoroquinazolin-2-yl)oxy)methyl)cyclopropyl)methyl)piperazin-1-yl)methyl)-3-azaspiro[5.5]undecane-3-carbonyl)-2-chlorophenyl)dihydropyrimidine-2,4(1H,3H)-dione] showed an IC50 in experiment [1] (numeric values) of 4.98 nM. At KRAS-G12D (numeric values), this compound came in with a DC50 of 15.8 nM and a Dmax of 94.8%. This compound also registered an IC50 in experiment [2] (numeric values) of 13.1 nM.

In experiment [1] (class symbols), `CCc1cccc2cc(O)cc(-c3ncc4c(N5CC6CCC(C5)N6)nc(NCC5(CN6CCN(CC7CCC8(CC7)CCN(C(=O)c7ccc(Cl)c(N9CCC(=O)NC9=O)c7)CC8)CC6)CC5)nc4c3F)c12` [Example 47, 1-(5-(9-((4-((1-(((4-(3,8-diazabicyclo[3.2.1]octan-3-yl)-7-(8-ethyl-3-hydroxynaphthalen-1-yl)-8-fluoropyrido[4,3-d]pyrimidin-2-yl)amino)methyl)cyclopropyl)methyl)piperazin-1-yl)methyl)-3-azaspiro [5.5]undecane-3-carbonyl)-2-chlorophenyl)dihydropyrimidine-2,4(1H,3H)-dione] had an IC50 of 50 to 100 nM. At KRAS-G12D (class symbols), this compound came in with a DC50 of 100 to 500 nM and a Dmax of 50 to 80%. The IC50 in experiment [2] (class symbols) was in the range of 50 to 100 nM.

Take `C#Cc1c(F)ccc2cc(O)cc(-c3ncc4c(N5CC6CCC(C5)N6)nc(OCC5(CN6CCN(CC7CCC8(CC7)CCN(C(=O)c7ccc(OC(F)(F)F)c(N9CCC(=O)NC9=O)c7)CC8)CC6)CC5)nc4c3F)c12` [Example 39, 1-(5-(9-((4-((1-(((4-(3,8-diazabicyclo[3.2.1]octan-3-yl)-7-(8-ethynyl-7-fluoro-3-hydroxynaphthalen-1-yl)-8-fluoropyrido[4,3-d]pyrimidin-2-yl)oxy)methyl)cyclopropyl)methyl)piperazin-1-yl)methyl)-3-azaspiro[5.5]undecane-3-carbonyl)-2-(trifluoromethoxy)phenyl)dihydropyrimidine-2,4(1H,3H)-dione]: the IC50 in experiment [1] (class symbols) is ≤ 50 nM. On KRAS-G12D (class symbols), the DC50 was ≤ 50 nM and the Dmax was 50 to 80%. In addition, the IC50 in experiment [2] (class symbols) was in the range of 100 to 500 nM.

For the compound `CCc1c(F)ccc2cc(O)cc(-c3ncc4c(N5CC6CCC(C5)N6)nc(OCC5(CN6CCN(CC7CCC8(CC7)CCN(C(=O)c7ccc(C)c(N9CCC(=O)NC9=O)c7)CC8)CC6)CC5)nc4c3F)c12` [Example 37, 1-(5-(9-((4-((1-(((4-(3,8-diazabicyclo[3.2.1]octan-3-yl)-7-(8-ethyl-7-fluoro-3-hydroxynaphthalen-1-yl)-8-fluoropyrido[4,3-d]pyrimidin-2-yl)oxy)methyl)cyclopropyl)methyl)piperazin-1-yl)methyl)-3-azaspiro[5.5]undecane-3-carbonyl)-2-methylphenyl)dihydropyrimidine-2,4(1H,3H)-dione], in experiment [1] (class symbols), the IC50 is ≤ 50 nM. In addition, at KRAS-G12D (class symbols), the DC50 was ≤ 50 nM and the Dmax is 80 to 100%. In experiment [2] (class symbols), this compound had an IC50 of 100 to 500 nM.

For `C#Cc1c(F)ccc2cc(O)cc(-c3ncc4c(N5CC6CCC(C5)N6)nc(NCC5(CN6CCN(CC7CCC8(CC7)CCN(C(=O)c7ccc(C)c(N9CCC(=O)NC9=O)c7)CC8)CC6)CC5)nc4c3F)c12` [Example 44, 1-(5-(9-((4-((1-(((4-(3,8-diazabicyclo[3.2.1]octan-3-yl)-7-(8-ethynyl-7-fluoro-3-hydroxynaphthalen-1-yl)-8-fluoropyrido[4,3-d]pyrimidin-2-yl)amino)methyl)cyclopropyl)methyl)piperazin-1-yl)methyl)-3-azaspiro[5.5]undecane-3-carbonyl)-2-methylphenyl)dihydropyrimidine-2,4(1H,3H)-dione], the IC50 in experiment [1] (class symbols) was ≤ 50 nM. Further, at KRAS-G12D (class symbols), the DC50 is ≤ 50 nM and the Dmax lay within 80 to 100%. The same compound came in with an IC50 in experiment [2] (class symbols) of 100 to 500 nM.
